Legend:
[1] = test system: Culex pipiens pallens; experiment: Test Example 1: topical application of acetone solution to the nota of female imagoes, death rate; format: in vivo; conditions: 0.015 μg of the test compound per mosquito, 0.005% (w/v) acetone solution, after 24 hours
Experimental: A 0.005% (w/v) solution of a test compound in acetone was prepared. The nota of 10 female imagoes of Culex pipiens pallens were treated with the acetone solution in an amount of 0.015 μg of the test compound per mosquito. Then, water and feed were given to the test mosquitoes. After 24 hours, the number of dead mosquitoes was counted, and a death rate was calculated (2 repetitions).

[2] = test system: Culex pipiens pallens; experiment: Test Example 2: vapor exposure over treated aluminum dish in an inverted cup, knockdown rate; format: in vivo; conditions: 0.002% (w/v) acetone solution, drug amount about 2 mg per 1 m^2, female imagos, after 60 minutes
Experimental: A 0.002% (w/v) solution of a test compound in acetone was prepared. Then, 0.64 ml of the acetone solution was dropped onto the bottom of an aluminum dish having a diameter of 9 cm. Then, acetone was air-dried (drug amount: about 2 mg per 1 m^2). Ten female imagos of Culex pipiens pallens were released in a polyethylene cup (diameter: 9 cm; height: 4.5 cm), and the upper opening portion of the polyethylene cup was covered with a 16 mesh nylon net. Next, the cup was inverted onto the aluminum dish. After 60 minutes, the number of knocked down mosquitoes was counted and a knockdown rate was calculated (2 repetitions). As a result, the knockdown rate of the present compound (1) was 70%.

Row | Structure (SMILES) | Death rate (%) [1] | knockdown rate [2]
1 | COCc1c(F)c(F)c(COC(=O)[C@@H]2[C@@H](C)C2(C)C)c(F)c1F [Comparative compound (B), 4-methoxymethyl-2,3,5,6-tetrafluorobenzyl (1R)-trans-2,3,3-trimethylcyclopropanecarboxylate, reference compound] | 55% | 
2 | C#CCc1c(F)c(F)c(COC(=O)[C@@H]2[C@@H](C)C2(C)C)c(F)c1F [Present compound (1), 4-(2-propynyl)-2,3,5,6-tetrafluorobenzyl (1R)-trans-2,2,3-trimethylcyclopropanecarboxylate] | 95% | 70%
